Laboratory results published in US8632813B2, “Prostaglandin compositions and methods for the treatment of vasospasm” (Nexmed (Holdings), Inc., priority 2003, dated 2014).

Assays:
[1] = tested on: vasospasm, central artery and vein of the ear; experiment: Pilot study of 0.4% PGE1 topical composition on adrenaline-induced ear vasospasm (Example 5, FIG. 1-2); assay type: in vivo, New Zealand rabbit; settings: 1 mg of PGE1 dissolved in 75% aqueous ethanol on skin of right ear
From the text: The objects of these pilot studies were designed to explore the efficacy of a specially formulated 0.4 wt % PGE1 topical composition for treating vasospasm and skin disorders that result from insufficient local blood circulation. Twenty four adult New Zealand rabbit, 3-4 kg, were divided into three groups: 12 rabbits were assigned into a Test Study Group; 6 rabbits were assigned into a PGE1 Control Group and 6 rabbits were assigned into an Alcohol Control Group. One rabbit of each Group was selected to enter the study at the same time for each of the first six studies.
The rabbit's right ear was selected to be the test application site, while its left ear was observed as a control. An adrenaline solution (0.2 ml of a 0.1% (1:1000) solution) was injected into the area adjacent to both the central artery and vein near the bottom of both ears. Classic vasospasm appeared five minutes later on both ears. One of three test substances, 125 mg of a 0.4% PGE1 topical composition containing 1.8% DDAIP HCl was applied to a 2 cm×2 cm area of skin adjacent to the central artery and vein of the right ear.
Vasospasm was induced in the same way in both ears of the rabbits of the PGE1 Control Group and the Alcohol Control Group. Similarly, 1 mg of PGE1 dissolved in 75% aqueous ethanol, or the 75% aqueous ethanol vehicle alone were applied to the right ears of the rabbits of the PGE1 Control Group and the Alcohol Control Group respectively. The time course of changes in blood vessel diameter was observed.

[2] = tested on: vasospasm induced by adrenaline hydrochloride, femoral artery; experiment: Ultrasonography of blood flow volume in surgically exposed femoral artery with adrenaline-induced vasospasm (Example 4); assay type: in vivo, New Zealand Rabbits; settings: four drops of papaverine (30 mg/ml) on exposed femoral artery; for The Average Time Required To Return To The Initial Blood Flow Volume: 120 minute test
Description: Rabbits were obtained and anesthetized as described in Example 2, above. A total of 70 rabbits were randomly assigned into 7 groups with 10 rabbits per group. Blood flow velocity and vascular cross section area were measured and analyzed using a Toshiba Multifunction Ultrasonography 6000 system. A portion of femoral artery about 2 cm long was exposed through a 3 cm incision. […] The entire test was performed under a constant room temperature of 20 degrees Celsius. About ten minutes after the application of adrenaline hydrochloride, the operating field was irrigated with sterile saline topically and dried with sterile pad. […] The incision was closed after the application of the topical composition. The ultrasonic probe was put at a fixed location 1 cm from the incision. […] In general, blood flow volume=blood flow velocity×vascular cross section The data were expressed as average±SD; t-test was used for statistical analysis. The averaged data are reported in Table 9, below, as instantaneous blood flow volume±standard deviation (SD), N=10, and shown graphically in FIG. 6.

Compound	changes of the vascular bed of the right ear [1]	duration of the dilation effect [1]	time after application at which the vasospasm was alleviated slightly [1]	time until vessels of the right ear were dilated [1]	The accumulated blood flow volume from 10 minutes after vasospasm to 120 minutes after drug administration [2]	instantaneous blood flow volume ([2]; 5 min after Drug)	instantaneous blood flow volume ([2]; 5 min after Vasospasm (before drug))	instantaneous blood flow volume ([2]; 10 min after Drug)	instantaneous blood flow volume ([2]; 10 min after Vasospasm (before drug))	instantaneous blood flow volume ([2]; 15 min after Drug)	instantaneous blood flow volume ([2]; 30 min after Drug)	instantaneous blood flow volume ([2]; 60 min after Drug)	instantaneous blood flow volume ([2]; 90 min after Drug)	instantaneous blood flow volume ([2]; 120 min after Drug)	The Average Time Required To Return To The Initial Blood Flow Volume [2]	The Average Time Required To Return To The Initial Blood Flow Volume ([2]; listed as papaverine)	instantaneous blood flow volume ([2]; Normal Condition (before drug))	The accumulated blood flow volume from 10 minutes after vasospasm to 120 minutes after drug administration ([2]; listed as papaverine)
CCCCC[C@H](O)/C=C/[C@H]1[C@H](O)CC(=O)[C@@H]1CCCCCCC(=O)O [PGE1 dissolved in 75% aqueous ethanol, Prostaglandin E1]	No significant remaining changes were observed	60 min	20 min	30 min														
COc1ccc(Cc2nccc3cc(OC)c(OC)cc23)cc1OC [Papaverine, papaverine]					2341 ± 94.87 cm^3	319 ± 13.27 mm^3/s	107 ± 4.11 mm^3/s	358 ± 13.95 mm^3/s	86 ± 4.76 mm^3/s	402 ± 18.44 mm^3/s	435 ± 17.76 mm^3/s	296 ± 12.58 mm^3/s	287 ± 11.96 mm^3/s	274 ± 10.88 mm^3/s	5 min	produced recovery of blood flow volume	325 ± 9.80 mm^3/s	a slightly greater effect that was comparable to that produced by composition comprising 80 μg PGE1
